In PubChem BioAssay (NCI) one finds TGI data, which are given here for eleven compounds.

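Grown in 96-well plates, cells were treated for 48 hours with each compound at five concentrations. Insufficient inhibition: endpoint recorded as highest concentration tested. Definition used: TGI = concentration required for complete inhibition of growth.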

For the first assay, the system named is HCT-116 colon. Briefly: NCI-60 cell line screen, 48 h.
`COc1c(C)c(C/C=C(\C)CCCCO[Si](c2ccccc2)(c2ccccc2)C(C)(C)C)c(OC)c(OC)c1OC`: the TGI is greater than 46.4 µM.

Compound `COC(=O)c1cc2c(n1S(=O)(=O)c1ccc(C)cc1)C(=O)C(=O)c1[nH]cc(C(=O)OCc3ccccc3)c1-2` gave a TGI of 0.247 µM.

In turn, `CC(C)CC(=O)OC[n+]1ccc(-c2c(COC(=O)NC(C)C)c(COC(=O)NC(C)C)c3n2CCC3)cc1` showed a TGI greater than 100 µM.

For the compound `COC(=O)C1CCC(=O)N1C(c1ccccc1)c1ccc(OC)c(OC)c1` (stereo not given), the TGI was greater than 100 µM.

Regarding `COc1ccc(C2c3cc4c(cc3OC(NNS(=O)(=O)c3ccc(C)cc3)C2C)OCO4)cc1` (stereo not given), the TGI is greater than 100 µM.

Compound `CCOC(=O)C1=C(C)NC(=S)NC1c1ccccc1` (stereo not given) yielded a TGI greater than 100 µM.

On to `N.N.N.N.O=[N+]([O-])[O-].[Co+3].[N-]=[N+]=[N-].[N-]=[N+]=[N-]`, for which the TGI was greater than 100 µM.

Take `CC(C)C1/C(=N/O)CC(c2ccccc2)N(N=O)C1c1ccccc1` (stereo not given): the TGI was 85.7 µM.

The compound `O=[N+]([O-])C(=C1NCCN1)/C(Cl)=C(\Cl)Br` had a TGI greater than 73.2 µM.

For the compound `CCC12C=CCN3CCC4(C(=C(C(=O)OC)[C@@H]1O)Nc1ccccc14)C32` (stereo not given in full), the TGI is 2.95 µM.

Consider `O=C(O)CN(CC(=O)O)C1CCCCC1N(CC(=O)O)CC(=O)NCCN=C=S` (stereo not given), for which the TGI is greater than 100 µM.

The test system of a further assay is KM12 colon. Briefly: NCI-60 cell line screen, 48 h.
For the compound `COc1c(C)c(C/C=C(\C)CCCCO[Si](c2ccccc2)(c2ccccc2)C(C)(C)C)c(OC)c(OC)c1OC`, the TGI was determined as 26.4 µM.

For the compound `COC(=O)c1cc2c(n1S(=O)(=O)c1ccc(C)cc1)C(=O)C(=O)c1[nH]cc(C(=O)OCc3ccccc3)c1-2`, the TGI came out at 0.563 µM.

Compound `CC(C)CC(=O)OC[n+]1ccc(-c2c(COC(=O)NC(C)C)c(COC(=O)NC(C)C)c3n2CCC3)cc1` came in with a TGI greater than 100 µM.

In turn, `COC(=O)C1CCC(=O)N1C(c1ccccc1)c1ccc(OC)c(OC)c1` (stereo not given) gave a TGI greater than 100 µM.

As to `COc1ccc(C2c3cc4c(cc3OC(NNS(=O)(=O)c3ccc(C)cc3)C2C)OCO4)cc1` (stereo not given), the TGI is greater than 100 µM.

Take `CCOC(=O)C1=C(C)NC(=S)NC1c1ccccc1` (stereo not given): the TGI was greater than 100 µM.

`N.N.N.N.O=[N+]([O-])[O-].[Co+3].[N-]=[N+]=[N-].[N-]=[N+]=[N-]` yielded a TGI greater than 100 µM.

The compound `CC(C)C1/C(=N/O)CC(c2ccccc2)N(N=O)C1c1ccccc1` (stereo not given) came in with a TGI greater than 100 µM.

Compound `O=[N+]([O-])C(=C1NCCN1)/C(Cl)=C(\Cl)Br` had a TGI greater than 100 µM.

The compound `CCC12C=CCN3CCC4(C(=C(C(=O)OC)[C@@H]1O)Nc1ccccc14)C32` (stereo not given in full) came in with a TGI of 3.19 µM.

For the compound `O=C(O)CN(CC(=O)O)C1CCCCC1N(CC(=O)O)CC(=O)NCCN=C=S` (stereo not given), the TGI is greater than 100 µM.

The next assay concerns LOX IMVI melanoma. Briefly: NCI-60 cell line screen, 48 h.
In turn, `COc1c(C)c(C/C=C(\C)CCCCO[Si](c2ccccc2)(c2ccccc2)C(C)(C)C)c(OC)c(OC)c1OC` yielded a TGI of 58.3 µM.

Turning to `COC(=O)c1cc2c(n1S(=O)(=O)c1ccc(C)cc1)C(=O)C(=O)c1[nH]cc(C(=O)OCc3ccccc3)c1-2`, the TGI amounted to 0.176 µM.

`CC(C)CC(=O)OC[n+]1ccc(-c2c(COC(=O)NC(C)C)c(COC(=O)NC(C)C)c3n2CCC3)cc1`: the TGI is greater than 100 µM.

In turn, `COC(=O)C1CCC(=O)N1C(c1ccccc1)c1ccc(OC)c(OC)c1` (stereo not given) returned a TGI greater than 100 µM.

Compound `COc1ccc(C2c3cc4c(cc3OC(NNS(=O)(=O)c3ccc(C)cc3)C2C)OCO4)cc1` (stereo not given) gave a TGI greater than 100 µM.

Turning to `CCOC(=O)C1=C(C)NC(=S)NC1c1ccccc1` (stereo not given), the TGI was greater than 100 µM.

The compound `N.N.N.N.O=[N+]([O-])[O-].[Co+3].[N-]=[N+]=[N-].[N-]=[N+]=[N-]` had a TGI greater than 100 µM.

For `CC(C)C1/C(=N/O)CC(c2ccccc2)N(N=O)C1c1ccccc1` (stereo not given), the TGI is greater than 100 µM.

For `O=[N+]([O-])C(=C1NCCN1)/C(Cl)=C(\Cl)Br`, the TGI was determined as 33.4 µM.

`CCC12C=CCN3CCC4(C(=C(C(=O)OC)[C@@H]1O)Nc1ccccc14)C32` (stereo not given in full) registered a TGI of 3.26 µM.

The compound `O=C(O)CN(CC(=O)O)C1CCCCC1N(CC(=O)O)CC(=O)NCCN=C=S` (stereo not given) showed a TGI greater than 100 µM.

In the next assay the test system is OVCAR-3 ovarian. Briefly: NCI-60 cell line screen, 48 h.
In turn, `COc1c(C)c(C/C=C(\C)CCCCO[Si](c2ccccc2)(c2ccccc2)C(C)(C)C)c(OC)c(OC)c1OC` came in with a TGI greater than 46.4 µM.

Take `COC(=O)c1cc2c(n1S(=O)(=O)c1ccc(C)cc1)C(=O)C(=O)c1[nH]cc(C(=O)OCc3ccccc3)c1-2`: the TGI amounted to 0.0913 µM.

For the compound `CC(C)CC(=O)OC[n+]1ccc(-c2c(COC(=O)NC(C)C)c(COC(=O)NC(C)C)c3n2CCC3)cc1`, the TGI is greater than 100 µM.

Regarding `COC(=O)C1CCC(=O)N1C(c1ccccc1)c1ccc(OC)c(OC)c1` (stereo not given), the TGI is greater than 100 µM.

Consider `COc1ccc(C2c3cc4c(cc3OC(NNS(=O)(=O)c3ccc(C)cc3)C2C)OCO4)cc1` (stereo not given), for which the TGI was greater than 100 µM.

The compound `CCOC(=O)C1=C(C)NC(=S)NC1c1ccccc1` (stereo not given) showed a TGI greater than 100 µM.

The compound `N.N.N.N.O=[N+]([O-])[O-].[Co+3].[N-]=[N+]=[N-].[N-]=[N+]=[N-]` returned a TGI greater than 100 µM.

Turning to `CC(C)C1/C(=N/O)CC(c2ccccc2)N(N=O)C1c1ccccc1` (stereo not given), the TGI was greater than 100 µM.

In the case of `O=[N+]([O-])C(=C1NCCN1)/C(Cl)=C(\Cl)Br`, the TGI came to 38.7 µM.

With `CCC12C=CCN3CCC4(C(=C(C(=O)OC)[C@@H]1O)Nc1ccccc14)C32` (stereo not given in full), the TGI came out at 3.89 µM.

Turning to `O=C(O)CN(CC(=O)O)C1CCCCC1N(CC(=O)O)CC(=O)NCCN=C=S` (stereo not given), the TGI was greater than 100 µM.

For a further assay, the system named is SF-268 CNS. Briefly: NCI-60 cell line screen, 48 h.
For the compound `COc1c(C)c(C/C=C(\C)CCCCO[Si](c2ccccc2)(c2ccccc2)C(C)(C)C)c(OC)c(OC)c1OC`, the TGI was greater than 100 µM.

For the compound `COC(=O)c1cc2c(n1S(=O)(=O)c1ccc(C)cc1)C(=O)C(=O)c1[nH]cc(C(=O)OCc3ccccc3)c1-2`, the TGI is 1.24 µM.

Compound `CC(C)CC(=O)OC[n+]1ccc(-c2c(COC(=O)NC(C)C)c(COC(=O)NC(C)C)c3n2CCC3)cc1` gave a TGI greater than 100 µM.

`COC(=O)C1CCC(=O)N1C(c1ccccc1)c1ccc(OC)c(OC)c1` (stereo not given) showed a TGI greater than 100 µM.

With `COc1ccc(C2c3cc4c(cc3OC(NNS(=O)(=O)c3ccc(C)cc3)C2C)OCO4)cc1` (stereo not given), the TGI is greater than 100 µM.

The compound `CCOC(=O)C1=C(C)NC(=S)NC1c1ccccc1` (stereo not given) showed a TGI greater than 100 µM.

With `N.N.N.N.O=[N+]([O-])[O-].[Co+3].[N-]=[N+]=[N-].[N-]=[N+]=[N-]`, the TGI was greater than 100 µM.

Turning to `CC(C)C1/C(=N/O)CC(c2ccccc2)N(N=O)C1c1ccccc1` (stereo not given), the TGI was greater than 100 µM.

Turning to `O=[N+]([O-])C(=C1NCCN1)/C(Cl)=C(\Cl)Br`, the TGI was greater than 89.9 µM.

The compound `CCC12C=CCN3CCC4(C(=C(C(=O)OC)[C@@H]1O)Nc1ccccc14)C32` (stereo not given in full) returned a TGI of 6.76 µM.

In the case of `O=C(O)CN(CC(=O)O)C1CCCCC1N(CC(=O)O)CC(=O)NCCN=C=S` (stereo not given), the TGI was greater than 100 µM.
